Consider 89 molecules from PubChem BioAssay AID1645866 (Buhrlage Lab, Dana-Farber Cancer Institute and Novartis …, 2021).

Activity calls are given as the source filed them.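 The calls were made as follows: active = in confirmatory dose-response testing, peak deubiquitinase inhibition of 30% or more; inactive = the rest.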

In the assay the target is Ubiquitin carboxyl-terminal hydrolase 28 (Homo sapiens) (UniProt Q96RU2). The experiment in a line: Ubiquitin-specific peptidase 28 DUB inhibitors, biochemical concentration-dependence assay, validation of primary screening hits (AID 1645866). The settings on record: purified USP28, ubiquitin-rhodamine fluorescence, 30 min.
Chain of Ubiquitin carboxyl-terminal hydrolase 28 (Homo sapiens) (Q96RU2 whole entry, looked up): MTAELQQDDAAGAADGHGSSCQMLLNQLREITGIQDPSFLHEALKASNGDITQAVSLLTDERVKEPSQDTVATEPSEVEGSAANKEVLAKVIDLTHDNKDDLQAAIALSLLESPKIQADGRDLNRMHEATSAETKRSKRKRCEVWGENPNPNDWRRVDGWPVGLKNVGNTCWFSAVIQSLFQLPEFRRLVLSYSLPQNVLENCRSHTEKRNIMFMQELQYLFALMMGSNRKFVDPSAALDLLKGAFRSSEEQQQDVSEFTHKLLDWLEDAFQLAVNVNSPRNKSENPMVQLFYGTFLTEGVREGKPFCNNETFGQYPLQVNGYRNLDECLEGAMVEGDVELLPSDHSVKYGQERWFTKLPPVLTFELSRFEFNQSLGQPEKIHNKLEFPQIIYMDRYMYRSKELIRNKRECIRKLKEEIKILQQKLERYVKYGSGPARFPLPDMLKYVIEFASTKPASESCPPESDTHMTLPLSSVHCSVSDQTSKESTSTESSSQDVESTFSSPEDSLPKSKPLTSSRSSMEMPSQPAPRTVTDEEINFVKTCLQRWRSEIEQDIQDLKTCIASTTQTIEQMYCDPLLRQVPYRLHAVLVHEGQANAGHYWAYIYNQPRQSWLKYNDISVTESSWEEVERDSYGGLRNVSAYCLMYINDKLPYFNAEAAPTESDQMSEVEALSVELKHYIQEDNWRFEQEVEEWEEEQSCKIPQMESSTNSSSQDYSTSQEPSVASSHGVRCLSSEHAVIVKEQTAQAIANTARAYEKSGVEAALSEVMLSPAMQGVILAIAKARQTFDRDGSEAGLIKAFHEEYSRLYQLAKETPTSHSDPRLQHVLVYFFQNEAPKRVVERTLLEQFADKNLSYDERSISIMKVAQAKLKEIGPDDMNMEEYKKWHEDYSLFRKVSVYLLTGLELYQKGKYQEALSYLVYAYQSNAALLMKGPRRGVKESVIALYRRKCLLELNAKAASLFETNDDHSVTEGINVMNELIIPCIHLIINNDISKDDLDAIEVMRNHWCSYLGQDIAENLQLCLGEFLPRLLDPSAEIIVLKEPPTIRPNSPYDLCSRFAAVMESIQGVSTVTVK
For the molecule `COc1ccc(C2SCC(=O)Nc3c2c(=O)[nH]n3C2CCCCC2)cc1` (centres undefined), the IC50 was 24.6 µM. For the molecule `COc1cccc(NC(=O)Nc2ccc(CCc3nc4ccccc4[nH]3)cc2)c1`, the IC50 is 6.28 µM. The same measure for `CCCCc1nc2sc3c(SCC(=O)NCc4ccccc4)ncnc3c2c2c1CCC2`: 39 µM; for `COCCNC(=O)c1ccnn1-c1ccc2ccc(-c3cccnc3)cn12`: > 50 µM (inactive); for `O=C(OCc1ccc(Br)cc1)c1ccc2ccccc2n1`: 1 µM. As for `COC(=O)c1cc(C)sc1NC(=O)c1cccc(OC)c1OC`, the IC50 is > 50 µM (inactive). The same measure for `O=c1c(Nc2cccc(F)c2)nc2ccncc2n1Cc1ccccc1`: 26 µM; for `CCCC[C@@H](C)/C=C(C)/C=C(\C)C(=O)NC1=C[C@](O)(/C=C/C=C/C=C/C(=O)NC2=C(O)CCC2=O)[C@@H]2O[C@@H]2C1=O`: 2.56 µM; for `Cc1ccc(-c2cn(CC(=O)N3CCN(c4ccccn4)CC3)c(=O)o2)cc1`: 16.5 µM.

Consider `COc1cccc(NC(=O)C2C3C=CC4(O3)C2C(=O)N(CCc2ccccc2Cl)C4C(=O)NC2CCCCC2)c1` (centres undefined), for which the IC50 was 26.1 µM.

With `Cc1nn(-c2cccc(F)c2)c2c1C(C(=O)c1ccc(Cl)s1)CC(=O)N2` (centres undefined), the half-maximal inhibitory concentration (IC50) was 48.6 µM. The same measure for `CCOc1ccc(NC(=O)c2nc3c(=O)[nH]c4cc(C)ccc4n3n2)cc1`: 47.5 µM; for `CC(C)c1ccc(NC(=O)c2cc3ncc(Br)cn3n2)cc1`: 5.14 µM; for `Cc1ccc(NC(=O)C2CCN(c3cncnc3N3CCCC3)CC2)cc1`: 0.456 µM. For `O=C(Cn1c(CSc2ccccc2)nc2ccccc21)Nc1ccccc1F`, the IC50 is 26.4 µM.

In the case of `O=C(NCCc1ccccn1)c1cc(-c2ccc(Br)cc2)n[nH]1`, the IC50 was 13.8 µM. As for `Cc1cccc(NC(=O)CSc2ncnc3c2sc2nc(CC(C)C)c4c(c23)CCC4)c1`, the figure is 6.42 µM. In the case of `O=C(NCc1ccccc1Cl)C1CCCN(c2nc3ccsc3c(=O)s2)C1` (centres undefined), the IC50 was 3.22 µM. The same measure for `Cc1nc(-c2ccc3c(c2)nnn3CCN2CCOCC2)no1`: > 50 µM (inactive).

As to `CCn1cc(-c2cc(C(=O)Nc3cnn(Cc4cccc(F)c4)c3)c3ccccc3n2)cn1`, the IC50 was 42.1 µM. As for `CCCOc1ccc(C(=O)Nc2ccc(S(=O)(=O)Nc3cc(C)nc(C)n3)cc2)cc1`, the figure is 31.5 µM.

As for `O=C(Nc1ccc2c(c1)OCCO2)Nc1nnc(CC(=O)N2CCCCC2)s1`, the IC50 was 20.5 µM. The same measure for `O=C(CSc1ccc2nnc(-c3ccccc3)n2n1)N1CCCc2ccccc21`: 9.31 µM. As for `O=C(Nc1cccc(F)c1)c1ncoc1-c1ccco1`, the figure is > 50 µM (inactive); as for `CCOc1ccc2cc3c(nc2c1)OC(=O)N(Cc1ccc(C)o1)C3`, 2.93 µM; as for `O=C(NCCc1ccccc1F)c1cn2cc(Cl)ccc2n1`, 31.8 µM.

`O=C(COc1ccc2c(-c3ccccc3)cc(=O)oc2c1)Nc1cccnc1`: the IC50 was 2.54 µM.

`CCCCN(C)C(=O)c1cc2c(=O)n3cccc(C)c3nc2n1Cc1ccccc1`: the IC50 is > 50 µM (inactive).

Turning to `COCCNC(=O)c1ccc(-c2ccc(N3CCCCC3)nc2)cc1`, the IC50 is 19.6 µM.

Regarding `CCCCOc1ccc(C(=O)Nc2ccc3c(c2)CCC(=O)N3CCC)cc1`, the IC50 is 1.01 µM. As for `CCN1C[C@@H]2C[C@]2(c2ccccc2OC)C(=O)c2ncccc21`, the figure is > 50 µM (inactive); as for `C[C@@H](C(=O)NCc1ccc(F)cc1)N1C(=O)N2CCc3c([nH]c4ccccc34)[C@@]2(C)C1=O`, 14.9 µM; as for `COc1ccc(NC(=O)C2CC(=O)Nc3cc(-c4ccccc4)nn32)cc1` (centres undefined), 21.7 µM. The same measure for `CSc1cccc(NC(=O)CCc2ccc3nc(NC(C)=O)sc3c2)c1`: > 50 µM (inactive). The same measure for `Cc1ccc2[nH]c3c(=O)n(CC4CCCO4)cnc3c2c1` (centres undefined): 18 µM.

With `CC(=O)c1ccc(N2C(=O)N(Cc3cccc([N+](=O)[O-])c3)c3ccccc3S2(=O)=O)cc1`, the IC50 was > 50 µM (inactive). As for `COc1cccc(CNC(=O)c2ccc(CSc3nc4ccncc4n3Cc3ccccc3F)cc2)c1`, the figure is 27.4 µM; as for `Cc1nc(-c2noc3ccc(C(=O)Nc4cccnc4)cc23)cs1`, 15.7 µM; as for `N#Cc1ccc(Cc2ncc(C(F)(F)F)cc2Cl)s1`, 8.21 µM. As for `COc1ccc(NC(=O)c2ccc(-n3nnnc3SC)cc2)cc1Cl`, the figure is 31.1 µM; as for `COc1ccc(-c2cc3nc(C)cc(Nc4ccc(F)cc4)n3n2)cc1OC`, > 50 µM (inactive); as for `COc1ccccc1CNC(=O)c1c(O)c2cnn(-c3cccc(C)c3)c2[nH]c1=O`, 9.36 µM. As for `COC(=O)c1cc2c(ccn2C)n1CC(=O)NC1CC1`, the figure is > 50 µM (inactive). As to `COc1ccc(NC(=O)c2ccccc2OCC(=O)Nc2ccccc2C(F)(F)F)c(C)c1`, the IC50 was 23.4 µM. As for `Cc1sc2ncnc(OCc3ccc(F)cc3Cl)c2c1C`, the figure is 0.436 µM; as for `Cc1nn(-c2ccccc2)c(C)c1C(=O)OCC(=O)Nc1cccc(Br)c1`, 2.72 µM; as for `Cc1nn(-c2nc3ccccc3[nH]2)c2c1C(c1cccs1)CC(=O)N2` (centres undefined), > 50 µM (inactive). The same measure for `Cc1nn(-c2ccc(Cl)cc2)c2[nH]c(=O)c(CNCC3CCCO3)cc12` (centres undefined): > 50 µM (inactive); for `COc1ccc(C(=O)Nc2ccccc2C(=O)NCc2ccccc2)cc1`: 37.6 µM. As for `CSc1ncccc1C(=O)NC1(O)C(=O)c2ccccc2C1=O`, the figure is 29 µM; as for `O=C(C(c1ccccc1)c1ccccc1)N1CCC(c2nc3c(nnn3Cc3c(F)cccc3Cl)c(=O)[nH]2)CC1`, 6.96 µM; as for `CCOc1ccc(CCNC(=O)c2ccc3c(c2)N(CC)C(=O)c2ccccc2S3)cc1OCC`, 1.89 µM. For the molecule `CC1=C2C(=NCCN1)C(=O)N(c1ccccc1)C2c1cccnc1` (centres undefined), the IC50 was > 50 µM (inactive). The same measure for `C[C@@H]1O[C@@H](O[C@H]2[C@H](O[C@H]3[C@H](O[C@H]4CC[C@@]5(C)[C@@H](CC[C@]6(C)[C@@H]5CC=C5[C@@H]7CC(C)(C)CC(=O)[C@]7(C)CC[C@]56C)[C@@]4(C)CO)O[C@H](C(=O)O)[C@@H](O)[C@@H]3O)OC[C@@H](O)[C@@H]2O)[C@H](O)[C@H](O)[C@H]1O`: 48.4 µM; for `O=C(Nc1ccc(F)cc1F)c1csc(-c2ccccc2)n1`: 24.4 µM; for `COc1ccc(-c2nc(SCC(=O)Nc3ccc(C(C)=O)cc3)n[nH]2)cc1`: 15.5 µM. For `COc1ccc(-c2cc(C(=O)NC3CCCCCC3)[nH]n2)cc1S(=O)(=O)N(C)C`, the IC50 is 23.6 µM. In the case of `Oc1ccc(Br)cc1CNc1ccc(F)cc1`, the IC50 was 18.3 µM. The same measure for `COc1ccc(CC(=O)Nc2ccc3nc(N4CCOCC4)cc(C)c3c2)cc1`: 26 µM. Take `O=C(NC1CCN(c2nc(-c3cccnc3)nc3ccccc23)CC1)c1cccnc1`: the IC50 was 15.1 µM.

For the molecule `COc1ccc(NC(=O)Cn2cc(C(=O)c3ccc(C)cc3)c(=O)c3ccccc32)cc1`, the IC50 is 2.67 µM. As for `CCCCc1nc2sc3c(NCCN4CCOCC4)ncnc3c2c2c1CCC2`, the figure is 0.549 µM; as for `CC(C)NS(=O)(=O)c1cccc2c(NC(=O)C(Cc3ccccc3)NC(=O)c3ccccc3)cccc12` (centres undefined), > 50 µM (inactive); as for `CCC(C)c1ccc(-c2csc(Cn3c(CN4CCN(C)CC4)nc4ccccc4c3=O)n2)cc1` (centres undefined), 15.3 µM.

For the molecule `CCOc1ccc(NC(=O)Cn2c(=O)n(CC(=O)NCc3ccc(C)cc3)c(=O)c3sccc32)cc1`, the IC50 is 8.61 µM.

With `CCN1C(SCc2ccc(F)cc2)=NS(=O)(=O)c2ccccc21`, the IC50 was 26.7 µM. As to `COc1ccc2ncc3c(-c4ccc(C)cc4)nn(-c4ccc(F)cc4)c3c2c1`, the IC50 was 2.11 µM. As for `COc1ccc(C(=O)Nc2nc(-c3ccc4c(c3)NC(=O)CO4)c(C)s2)cc1OC`, the figure is 1.72 µM; as for `O=C(CSc1cn(Cc2ccccc2)c2ccccc12)Nc1ccc2c(c1)OCCO2`, 17.2 µM. The same measure for `Cc1ccc(NC(=O)c2ccc(N3CCOCC3)nn2)cc1F`: 45.6 µM. As for `COc1ccccc1NC(=O)Cn1cc(C(=O)c2ccc(C)cc2)c(=O)c2ccccc21`, the figure is 21.8 µM; as for `O=S(=O)(Nc1ccc(O)cc1)c1ccc2oc3ccc(S(=O)(=O)Nc4ccc(O)cc4)cc3c2c1`, 22.3 µM; as for `Cc1ccc(/C=C/C(=O)Nc2ccc3c(c2)OCCO3)cc1`, 3.76 µM. In the case of `COc1ccc(CCNC(=O)c2c(N)n(-c3cccc(Cl)c3)c3nc4ccccc4nc23)cc1`, the IC50 was > 50 µM (inactive). As for `O=C(Nc1ccc2c(c1)OCO2)c1cc(-c2cccnc2)n(-c2ccccc2)n1`, the figure is 8.27 µM; as for `Cc1nn(-c2ccccc2)c2c1N=C1C(Cl)=CC(Cl)=CN1C21C(=O)Nc2ccccc21` (centres undefined), > 50 µM (inactive).

Regarding `C=C1CCC2[C@](C)(CCC[C@]2(C)C(=O)OC)[C@H]1CCc1ccoc1/C=C/C(=O)O` (some centres undefined), the IC50 was 29.1 µM.

For `COc1cccc(C(=O)NCC(=O)Nc2nc3ccccc3[nH]2)c1`, the IC50 was 43.8 µM. As for `COc1cccc(NC(=O)c2ccc(F)cc2Cl)c1`, the figure is 18.7 µM.

As for `O=c1ccc(-c2noc(Cc3cccc(Cl)c3)n2)c[nH]1`, the IC50 is 0.0563 µM. As for `Cn1c2ccccc2c2ncn(Cc3ccc(F)cc3)c(=O)c21`, the figure is 6.71 µM.

As to `Cc1ccc(-n2c(-c3ccccc3)cn3c4c(=O)[nH]c(=O)n(C)c4nc23)cc1C`, the IC50 is 0.641 µM. `CCOc1ccccc1-c1nc(-c2nnn(Cc3ccccc3)c2C)no1`: the IC50 was > 50 µM (inactive). The same measure for `CN[C@H]1CC2(CCN(C(=O)CCCn3cccn3)CC2)OC[C@]1(C)O`: > 50 µM (inactive); for `CS(=O)(=O)N1CCCc2cc(C(=O)Nc3ccc(Oc4ccccc4)cc3)ccc21`: 12.5 µM. As for `COc1cccc(NC(=O)Cc2sc(Nc3cc(C)cc(C)c3)nc2O)c1`, the figure is 18.1 µM.

Regarding `COC(=O)c1ccc2c(=O)n(CCCCCC(=O)NCc3cccc(Cl)c3)c(=O)[nH]c2c1`, the IC50 was 2.05 µM. `Cc1cccc(-c2nc3n(CC(=O)Nc4ccc(Cl)cc4)c(C)cc(=O)n3n2)c1`: the IC50 was 0.985 µM.

For the molecule `CCCCCC(O)c1c(O)cc2c(c1O)C(=O)c1c(O)cc(O)cc1C2=O` (centres undefined), the IC50 is > 50 µM (inactive).
